Experiments:
Test in all cases: Nanosyn kinase profiling
Type in all cases: biochemical
Settings in all cases: read-out: Percentage inhibition; for inhibition at 0.1 µM: 0.1 µM inhibitor; for inhibition at 1 µM: 1 µM inhibitor
TEC = target: T1, TEC (Homo sapiens, UniProt P42680)
T1 construct: purchased Nanosyn (enzymatic panel); SGC in-house recombinant human kinases (DSF panel); Invitrogen (ALK1-6)
T1 sequence (P42680 1-631): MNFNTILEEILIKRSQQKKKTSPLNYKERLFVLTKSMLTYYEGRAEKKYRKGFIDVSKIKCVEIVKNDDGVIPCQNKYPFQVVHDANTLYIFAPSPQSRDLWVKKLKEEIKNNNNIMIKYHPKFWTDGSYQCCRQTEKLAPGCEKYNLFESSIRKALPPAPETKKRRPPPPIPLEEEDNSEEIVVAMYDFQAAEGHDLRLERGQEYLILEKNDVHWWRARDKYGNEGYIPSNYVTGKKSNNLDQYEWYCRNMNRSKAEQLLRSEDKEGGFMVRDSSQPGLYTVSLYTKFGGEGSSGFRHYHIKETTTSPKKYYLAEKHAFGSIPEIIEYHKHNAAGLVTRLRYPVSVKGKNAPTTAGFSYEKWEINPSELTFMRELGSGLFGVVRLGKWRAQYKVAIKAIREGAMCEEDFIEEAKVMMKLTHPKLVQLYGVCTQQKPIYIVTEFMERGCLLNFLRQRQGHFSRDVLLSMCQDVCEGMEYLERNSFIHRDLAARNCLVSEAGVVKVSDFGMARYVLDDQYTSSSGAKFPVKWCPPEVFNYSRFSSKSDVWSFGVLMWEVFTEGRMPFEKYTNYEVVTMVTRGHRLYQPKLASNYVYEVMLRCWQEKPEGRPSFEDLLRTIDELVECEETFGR
In short: (§1)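 Percent inhibition of each kinase was measured with the inhibitor at 0.1 µM and at 1 µM, as part of a 200-kinase human selectivity panel.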

TYRO3 = target: T2, TYRO3 (Homo sapiens, UniProt Q06418)
T2 construct: purchased Nanosyn (enzymatic panel); SGC in-house recombinant human kinases (DSF panel); Invitrogen (ALK1-6)
T2 sequence (Q06418 41-890): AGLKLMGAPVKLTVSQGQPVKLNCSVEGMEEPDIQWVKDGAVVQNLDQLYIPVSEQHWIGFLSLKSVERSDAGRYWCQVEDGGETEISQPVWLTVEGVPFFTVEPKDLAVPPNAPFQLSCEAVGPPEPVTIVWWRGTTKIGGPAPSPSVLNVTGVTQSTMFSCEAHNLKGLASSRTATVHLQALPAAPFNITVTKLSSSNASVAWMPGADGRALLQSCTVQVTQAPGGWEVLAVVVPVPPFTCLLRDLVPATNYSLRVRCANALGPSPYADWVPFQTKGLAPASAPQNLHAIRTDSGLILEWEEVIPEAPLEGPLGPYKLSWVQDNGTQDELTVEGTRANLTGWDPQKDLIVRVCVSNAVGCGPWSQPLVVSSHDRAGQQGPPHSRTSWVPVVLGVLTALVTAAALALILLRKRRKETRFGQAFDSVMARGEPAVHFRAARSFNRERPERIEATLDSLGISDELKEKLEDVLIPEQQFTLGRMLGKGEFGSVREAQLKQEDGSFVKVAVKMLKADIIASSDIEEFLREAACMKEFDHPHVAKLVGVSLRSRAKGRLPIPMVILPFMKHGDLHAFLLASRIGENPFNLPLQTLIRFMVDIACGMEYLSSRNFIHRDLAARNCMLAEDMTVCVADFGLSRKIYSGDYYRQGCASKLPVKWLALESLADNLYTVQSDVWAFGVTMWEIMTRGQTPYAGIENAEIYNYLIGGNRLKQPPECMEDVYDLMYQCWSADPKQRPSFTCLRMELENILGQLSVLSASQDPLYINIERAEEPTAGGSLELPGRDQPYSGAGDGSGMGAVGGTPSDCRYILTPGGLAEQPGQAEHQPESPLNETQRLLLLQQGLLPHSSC
In short: as §1

FGR = target: T3, FGR (Homo sapiens, UniProt P09769)
T3 construct: purchased Nanosyn (enzymatic panel); SGC in-house recombinant human kinases (DSF panel); Invitrogen (ALK1-6)
In short: as §1

MAPK3 = target: T4, MAPK3 (Homo sapiens, UniProt P27361)
T4 construct: purchased Nanosyn (enzymatic panel); SGC in-house recombinant human kinases (DSF panel); Invitrogen (ALK1-6)
In short: as §1

PASK = target: T5, PASK (Homo sapiens, UniProt Q96RG2)
T5 construct: purchased Nanosyn (enzymatic panel); SGC in-house recombinant human kinases (DSF panel); Invitrogen (ALK1-6)
In short: as §1

NEK9 = target: T6, NEK9 (Homo sapiens, UniProt Q8TD19)
T6 construct: purchased Nanosyn (enzymatic panel); SGC in-house recombinant human kinases (DSF panel); Invitrogen (ALK1-6)
T6 sequence (Q8TD19 1-979): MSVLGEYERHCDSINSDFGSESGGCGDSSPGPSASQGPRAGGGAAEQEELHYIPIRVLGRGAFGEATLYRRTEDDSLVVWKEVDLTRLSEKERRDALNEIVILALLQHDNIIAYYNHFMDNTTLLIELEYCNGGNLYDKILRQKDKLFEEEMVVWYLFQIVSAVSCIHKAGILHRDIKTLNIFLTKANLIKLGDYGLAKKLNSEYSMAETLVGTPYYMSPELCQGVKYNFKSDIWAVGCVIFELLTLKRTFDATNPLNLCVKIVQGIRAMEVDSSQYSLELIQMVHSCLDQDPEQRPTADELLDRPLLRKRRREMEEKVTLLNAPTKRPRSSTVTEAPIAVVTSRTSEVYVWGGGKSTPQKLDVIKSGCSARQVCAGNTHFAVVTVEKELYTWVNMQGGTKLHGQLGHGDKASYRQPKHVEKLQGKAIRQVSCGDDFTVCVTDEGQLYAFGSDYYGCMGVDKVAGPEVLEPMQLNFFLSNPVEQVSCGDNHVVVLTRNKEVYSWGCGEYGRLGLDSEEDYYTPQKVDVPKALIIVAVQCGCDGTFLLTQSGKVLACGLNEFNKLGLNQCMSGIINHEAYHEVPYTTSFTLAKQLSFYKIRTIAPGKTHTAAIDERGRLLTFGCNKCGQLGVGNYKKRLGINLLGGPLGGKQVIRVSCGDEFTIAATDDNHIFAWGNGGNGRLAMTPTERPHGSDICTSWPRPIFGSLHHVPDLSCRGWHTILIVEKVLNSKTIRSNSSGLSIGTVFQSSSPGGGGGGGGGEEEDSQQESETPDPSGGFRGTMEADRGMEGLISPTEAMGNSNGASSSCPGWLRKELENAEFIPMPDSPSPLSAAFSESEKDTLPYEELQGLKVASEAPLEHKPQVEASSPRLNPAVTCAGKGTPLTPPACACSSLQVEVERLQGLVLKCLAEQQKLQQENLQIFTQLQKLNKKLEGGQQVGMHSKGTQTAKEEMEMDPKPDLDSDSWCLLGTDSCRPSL
In short: as §1

PYK2 = target: T7, PYK2 (Homo sapiens, UniProt Q14289)
T7 construct: purchased Nanosyn (enzymatic panel); SGC in-house recombinant human kinases (DSF panel); Invitrogen (ALK1-6)
In short: as §1

T5 sequence (Q96RG2 whole entry): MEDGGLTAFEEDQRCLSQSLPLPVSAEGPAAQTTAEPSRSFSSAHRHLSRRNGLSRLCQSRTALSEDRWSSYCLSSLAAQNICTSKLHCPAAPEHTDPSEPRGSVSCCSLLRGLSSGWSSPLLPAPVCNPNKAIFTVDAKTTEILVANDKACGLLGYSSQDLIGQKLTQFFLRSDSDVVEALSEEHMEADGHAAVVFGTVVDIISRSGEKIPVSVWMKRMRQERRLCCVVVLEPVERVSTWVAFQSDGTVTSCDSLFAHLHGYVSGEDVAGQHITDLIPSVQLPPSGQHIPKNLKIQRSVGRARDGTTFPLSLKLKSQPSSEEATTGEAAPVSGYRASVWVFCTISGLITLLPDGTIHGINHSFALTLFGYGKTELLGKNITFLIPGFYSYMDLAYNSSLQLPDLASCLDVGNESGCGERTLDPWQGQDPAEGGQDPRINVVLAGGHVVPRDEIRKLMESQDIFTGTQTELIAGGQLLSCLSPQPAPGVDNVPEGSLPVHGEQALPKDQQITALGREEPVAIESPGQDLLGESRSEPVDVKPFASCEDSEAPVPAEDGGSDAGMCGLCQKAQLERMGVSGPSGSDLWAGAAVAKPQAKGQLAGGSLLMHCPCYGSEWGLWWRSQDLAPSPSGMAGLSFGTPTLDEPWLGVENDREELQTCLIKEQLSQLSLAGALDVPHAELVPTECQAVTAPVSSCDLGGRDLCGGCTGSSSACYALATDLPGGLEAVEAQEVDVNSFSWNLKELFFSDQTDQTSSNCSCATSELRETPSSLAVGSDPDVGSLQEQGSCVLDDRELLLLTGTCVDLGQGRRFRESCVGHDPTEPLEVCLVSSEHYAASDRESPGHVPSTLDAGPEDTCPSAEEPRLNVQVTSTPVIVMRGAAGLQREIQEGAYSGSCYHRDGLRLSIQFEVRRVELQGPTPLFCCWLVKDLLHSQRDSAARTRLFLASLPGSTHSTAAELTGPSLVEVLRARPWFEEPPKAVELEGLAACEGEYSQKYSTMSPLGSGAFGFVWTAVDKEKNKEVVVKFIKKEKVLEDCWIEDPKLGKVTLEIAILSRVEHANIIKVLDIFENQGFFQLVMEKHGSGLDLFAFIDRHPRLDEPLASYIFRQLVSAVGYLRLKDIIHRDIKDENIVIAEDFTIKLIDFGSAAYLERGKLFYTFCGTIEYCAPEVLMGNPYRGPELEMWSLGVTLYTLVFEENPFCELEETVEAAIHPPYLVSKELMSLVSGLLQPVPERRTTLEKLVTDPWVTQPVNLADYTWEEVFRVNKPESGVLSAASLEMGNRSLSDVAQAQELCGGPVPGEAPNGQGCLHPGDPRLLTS
T7 sequence (Q14289 whole entry): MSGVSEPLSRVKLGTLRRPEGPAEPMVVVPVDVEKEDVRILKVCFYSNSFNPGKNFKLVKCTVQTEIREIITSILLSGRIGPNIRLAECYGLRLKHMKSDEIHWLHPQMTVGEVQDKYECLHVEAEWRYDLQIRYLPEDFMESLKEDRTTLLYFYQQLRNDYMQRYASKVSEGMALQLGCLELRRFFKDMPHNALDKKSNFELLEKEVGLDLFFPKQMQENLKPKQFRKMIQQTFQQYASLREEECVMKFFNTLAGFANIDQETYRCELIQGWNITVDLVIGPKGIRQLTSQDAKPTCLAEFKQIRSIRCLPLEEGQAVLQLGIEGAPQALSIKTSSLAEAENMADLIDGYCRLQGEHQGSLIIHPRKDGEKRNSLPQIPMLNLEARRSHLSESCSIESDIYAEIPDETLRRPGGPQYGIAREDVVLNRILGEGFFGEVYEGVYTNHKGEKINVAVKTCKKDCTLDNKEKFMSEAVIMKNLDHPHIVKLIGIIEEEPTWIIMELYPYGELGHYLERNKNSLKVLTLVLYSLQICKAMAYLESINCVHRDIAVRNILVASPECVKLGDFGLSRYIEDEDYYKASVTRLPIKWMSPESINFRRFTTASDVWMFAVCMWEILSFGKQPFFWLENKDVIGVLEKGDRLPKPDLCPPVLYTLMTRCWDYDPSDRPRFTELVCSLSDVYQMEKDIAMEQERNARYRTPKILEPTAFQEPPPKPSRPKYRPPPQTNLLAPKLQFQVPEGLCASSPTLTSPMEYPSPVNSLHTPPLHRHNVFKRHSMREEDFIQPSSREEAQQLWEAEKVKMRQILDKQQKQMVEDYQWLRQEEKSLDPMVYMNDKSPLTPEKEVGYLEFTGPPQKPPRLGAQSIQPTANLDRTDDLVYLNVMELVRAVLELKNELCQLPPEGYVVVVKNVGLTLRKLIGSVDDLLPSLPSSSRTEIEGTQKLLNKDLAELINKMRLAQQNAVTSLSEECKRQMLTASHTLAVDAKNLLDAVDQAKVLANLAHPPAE
T4 sequence (P27361 whole entry): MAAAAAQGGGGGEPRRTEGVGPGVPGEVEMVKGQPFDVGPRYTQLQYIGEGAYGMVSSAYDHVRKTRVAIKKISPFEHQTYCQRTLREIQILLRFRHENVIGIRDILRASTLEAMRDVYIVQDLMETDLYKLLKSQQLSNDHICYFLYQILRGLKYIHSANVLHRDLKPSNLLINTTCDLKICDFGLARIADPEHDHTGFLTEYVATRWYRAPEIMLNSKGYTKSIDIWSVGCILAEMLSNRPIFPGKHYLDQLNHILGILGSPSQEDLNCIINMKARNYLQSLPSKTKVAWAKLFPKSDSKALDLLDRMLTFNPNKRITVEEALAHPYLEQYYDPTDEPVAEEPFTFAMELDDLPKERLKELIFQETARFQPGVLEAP
T3 sequence (P09769 whole entry): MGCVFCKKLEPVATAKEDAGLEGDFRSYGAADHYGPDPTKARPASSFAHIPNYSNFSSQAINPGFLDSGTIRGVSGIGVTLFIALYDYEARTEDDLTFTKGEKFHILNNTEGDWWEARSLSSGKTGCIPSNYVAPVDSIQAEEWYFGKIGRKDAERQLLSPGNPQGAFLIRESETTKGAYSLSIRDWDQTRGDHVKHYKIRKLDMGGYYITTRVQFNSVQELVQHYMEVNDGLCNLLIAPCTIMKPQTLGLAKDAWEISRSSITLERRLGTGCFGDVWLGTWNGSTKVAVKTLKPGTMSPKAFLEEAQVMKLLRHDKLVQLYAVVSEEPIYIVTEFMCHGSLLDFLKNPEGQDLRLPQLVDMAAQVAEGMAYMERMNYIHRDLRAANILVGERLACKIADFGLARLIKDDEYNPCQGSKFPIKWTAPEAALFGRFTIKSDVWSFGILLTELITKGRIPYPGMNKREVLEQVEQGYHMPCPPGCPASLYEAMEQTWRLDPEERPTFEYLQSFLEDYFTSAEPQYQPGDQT

| SMILES | inhibition at 0.1 µM (TEC) [%] | inhibition at 1 µM (TEC) [%] | inhibition at 0.1 µM (TYRO3) [%] | inhibition at 1 µM (TYRO3) [%] | inhibition at 0.1 µM (FGR) [%] | inhibition at 1 µM (FGR) [%] | inhibition at 0.1 µM (MAPK3) [%] | inhibition at 1 µM (MAPK3) [%] | inhibition at 0.1 µM (PASK) [%] | inhibition at 1 µM (PASK) [%] | inhibition at 0.1 µM (NEK9) [%] | inhibition at 1 µM (NEK9) [%] | inhibition at 0.1 µM (PYK2) [%] | inhibition at 1 µM (PYK2) [%] |
| --- | --- | --- | --- | --- | --- | --- | --- | --- | --- | --- | --- | --- | --- | --- |
| COc1cc(-c2cc(-c3cccc(O)c3)cnc2N)cc(OC)c1OC [K02288, 3-[6-amino-5-(3,4,5-trimethoxy-phenyl)-pyridin-3-yl]-phenol] | 0.3 | 14 | 1.8 | 19 | 6.7 | 37 | 0 | -1 | 1.1 | 0.6 | 5.3 | -2 | -1 | 0 |
| c1ccc2c(-c3cnn4cc(-c5ccc(N6CCNCC6)cc5)cnc34)ccnc2c1 [LDN-193189] | 1.8 | 5.5 | 13 | 58 | 13 | 53 | 1.9 | -2 | 1.9 | 1.4 | 1.9 | 6.6 | 4.6 | 9 |
